# Test results published in article PMC11137104, “Small molecule induced STING degradation facilitated by the HECT ligase HERC4” (Nature Communications, 2024).
# What was measured:
# Assay in all cases: NanoBiT complementation of STING and HERC4 in HEK293T; also co-immunoprecipitation
# Type in all cases: cell-based
# [1] = target: T1, STING^141-341-LgBiT : SmBiT-HERC4 (Homo sapiens, UniProt Q5GLZ8+Q86WV6); details: compound-induced STING-HERC4 association; dose-response, 16 h; binding site and direct binary binding not determined
# T1 construct: gene STING1; STING cytosolic domain with connector helix (141-341), C-terminal LgBiT; full-length HERC4, N-terminal SmBiT; transient in HEK293T
# T1 sequence (Q86WV6 141-341): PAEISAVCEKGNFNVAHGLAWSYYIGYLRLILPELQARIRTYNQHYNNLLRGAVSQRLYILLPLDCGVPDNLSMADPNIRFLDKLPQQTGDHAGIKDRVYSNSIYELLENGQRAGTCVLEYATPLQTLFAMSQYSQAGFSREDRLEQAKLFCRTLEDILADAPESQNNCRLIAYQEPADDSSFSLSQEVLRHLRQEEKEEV
# T1 sequence (Q5GLZ8 whole entry, the tested form may be a part): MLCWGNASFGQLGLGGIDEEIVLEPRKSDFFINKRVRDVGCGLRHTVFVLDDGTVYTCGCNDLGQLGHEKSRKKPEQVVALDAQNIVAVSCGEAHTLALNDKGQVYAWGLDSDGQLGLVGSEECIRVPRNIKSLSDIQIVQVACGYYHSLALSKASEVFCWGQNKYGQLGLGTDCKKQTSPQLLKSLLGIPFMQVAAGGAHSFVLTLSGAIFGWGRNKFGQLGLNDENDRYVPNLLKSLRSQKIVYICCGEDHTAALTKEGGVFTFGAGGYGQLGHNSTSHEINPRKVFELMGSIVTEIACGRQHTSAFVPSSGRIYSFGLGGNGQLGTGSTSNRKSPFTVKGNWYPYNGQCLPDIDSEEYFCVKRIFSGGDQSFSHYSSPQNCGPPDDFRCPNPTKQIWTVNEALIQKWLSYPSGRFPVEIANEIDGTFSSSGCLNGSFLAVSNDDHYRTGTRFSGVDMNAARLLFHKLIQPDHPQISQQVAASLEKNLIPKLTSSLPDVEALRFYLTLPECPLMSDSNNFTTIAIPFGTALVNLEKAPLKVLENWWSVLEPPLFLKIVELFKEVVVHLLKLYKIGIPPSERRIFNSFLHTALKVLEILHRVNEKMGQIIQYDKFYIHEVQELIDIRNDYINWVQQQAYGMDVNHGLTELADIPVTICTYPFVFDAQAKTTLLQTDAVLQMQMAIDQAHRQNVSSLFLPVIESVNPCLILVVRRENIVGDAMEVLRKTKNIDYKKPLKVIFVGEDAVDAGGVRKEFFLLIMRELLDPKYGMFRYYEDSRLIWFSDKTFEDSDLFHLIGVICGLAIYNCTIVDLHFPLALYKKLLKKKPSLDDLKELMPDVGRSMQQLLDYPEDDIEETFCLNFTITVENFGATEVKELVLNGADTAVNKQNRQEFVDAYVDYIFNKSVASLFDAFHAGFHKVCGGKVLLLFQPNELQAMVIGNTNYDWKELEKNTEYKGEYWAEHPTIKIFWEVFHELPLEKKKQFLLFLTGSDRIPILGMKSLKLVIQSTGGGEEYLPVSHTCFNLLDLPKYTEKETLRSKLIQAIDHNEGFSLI
# [2] = target: T2, STING^141-341-LgBiT : SmBiT-HERC4 (Homo sapiens, UniProt Q5GLZ8+Q86WV6, Q86WV6:K150R); details: compound-induced STING-HERC4 association; dose-response, 16 h; binding site and direct binary binding not determined
# T2 construct: gene STING1; STING cytosolic domain with connector helix (141-341), C-terminal LgBiT; full-length HERC4, N-terminal SmBiT; transient in HEK293T
# T2 sequence (Q86WV6 141-341 K150R): as the sequence (Q86WV6 141-341) above, with K10R counted along it
# T2 sequence (Q5GLZ8 whole entry, the tested form may be a part): as the sequence (Q5GLZ8 whole entry, the tested form may be a part) above
# [3] = target: T3, STING^155-341-LgBiT : SmBiT-HERC4 (Homo sapiens, UniProt Q5GLZ8+Q86WV6); details: compound-induced STING-HERC4 association; 16 h; binding site and direct binary binding not determined
# T3 construct: gene STING1; full-length HERC4, N-terminal SmBiT; transient in HEK293T
# T3 sequence (Q86WV6 155-341): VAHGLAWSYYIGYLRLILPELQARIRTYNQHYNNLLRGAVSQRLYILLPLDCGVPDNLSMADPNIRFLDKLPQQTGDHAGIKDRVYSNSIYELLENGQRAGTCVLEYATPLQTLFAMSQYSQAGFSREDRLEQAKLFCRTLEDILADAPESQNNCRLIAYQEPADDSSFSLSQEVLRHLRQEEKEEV
# T3 sequence (Q5GLZ8 whole entry): as the sequence (Q5GLZ8 whole entry, the tested form may be a part) above
smiles,measurement,setting,value
"O=S(=O)(Nc1ccc(-c2cccnc2)c2cccnc12)c1ccc(C(F)(F)F)cc1 [AK59, AK59-51TB]",NanoBiT complementation of STING and HERC4 in HEK293T; also co-immunoprecipitati,[1],"only AK59, but not the inactive analog QK50, is capable of inducing an interaction"
same,NanoBiT complementation of STING and HERC4 in HEK293T; also co-immunoprecipitati,[2],all constructs showed a luminescence signal indicating a direct interaction with HERC4 upon AK59
same,NanoBiT complementation of STING and HERC4 in HEK293T; also co-immunoprecipitati,[3],all constructs showed a luminescence signal indicating a direct interaction with HERC4 upon AK59
